Test results: paper PMC5893282 (ACS infectious diseases, 2018)

Columns and labels:
[1] = tested on: E. coli ΔtolC PrecA-GFP SOS reporter; experiment: Cell-based SOS reporter assay; settings: ciprofloxacin 128 ng/mL, 2 hours, ΔtolC reporter strain
FlAsH-LexAPa with RecA* = FlAsH-LexAPa with RecA* (Pseudomonas aeruginosa, UniProt P37452); experiment: Pilot screen of Microsource Spectrum library with FlAsH-LexAPa; assay type: biochemical, P. aeruginosa; settings: fixed concentration of 16 μM, single endpoint
Sequence of FlAsH-LexAPa with RecA* (P37452 81-204): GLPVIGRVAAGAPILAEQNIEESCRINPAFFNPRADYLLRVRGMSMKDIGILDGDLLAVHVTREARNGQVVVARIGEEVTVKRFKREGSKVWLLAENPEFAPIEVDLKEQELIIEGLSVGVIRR

SMILES | Increase in GFP fluorescence over the unstressed control [1] | Hit in pilot screen (FlAsH-LexAPa with RecA*)
O=C(O)c1cn(C2CC2)c2cc(N3CCNCC3)c(F)cc2c1=O [ciprofloxacin] | ~ 50 fold | –
Cc1ccc(C(=O)Nc2ccc(S(=O)(=O)O)c3cc(S(=O)(=O)O)cc(S(=O)(=O)O)c23)cc1NC(=O)c1cccc(NC(=O)Nc2cccc(C(=O)Nc3cc(C(=O)Nc4ccc(S(=O)(=O)O)c5cc(S(=O)(=O)O)cc(S(=O)(=O)O)c45)ccc3C)c2)c1 [suramin] | – | identified in this pilot screen
